Experimental data taken from patent US20120029187A1, “HALOALKYLSULFONANILIDE DERIVATIVE” (Nissan Chemical Industries, Ltd., priority 2009, published 2012).

Columns and labels:
Type in all cases: in vivo
[1] = system: barnyardgrass; test: Test Example 2: herbicidal effects during the vegetation period under submerged conditions; conditions: treatment during the vegetation period under submerged conditions; dose 2.52 g/a
Summary of the method: (§1)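 Barnyardgrass, bulrush and ducksalad were co-sown in alluvial soil flooded to 4 cm and grown in a greenhouse at 25 to 30° C. At the 1- or 2-leaf stage, water-diluted emulsifiable concentrates went onto the water surface at set doses (g/a). Herbicidal effect was scored three weeks later on a graded scale.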

[2] = system: ducksalad; test: as above; conditions: treatment during the vegetation period under submerged conditions; dose 2.52 g/a
Summary of the method: as §1

[3] = system: bulrush; test: as above; conditions: treatment during the vegetation period under submerged conditions; dose 2.52 g/a
Summary of the method: as §1

[4] = system: barnyardgrass; test: Test Example 1: herbicidal effects in preemergence treatment under submerged conditions; conditions: dose 2.52 g/a
Summary of the method: (§2)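 Weed seeds and 2.5-leaf rice seedlings shared each flooded cup of alluvial soil. Dosing, expressed as g per are, was by pouring water-diluted emulsifiable concentrate onto the surface on sowing day. Mortality was graded 0 to 5 after three weeks' growth.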

[5] = system: ducksalad; test: as above; conditions: dose 2.52 g/a
Summary of the method: as §2

[6] = system: bulrush; test: as above; conditions: dose 2.52 g/a
Summary of the method: as §2

[7] = system: common lambsquater; test: Test Example 4: herbicidal effect in foliage treatment; conditions: dose 3.2 g/a
Summary of the method: (§3)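 A uniform foliar spray of emulsifiable concentrate, diluted with water to give the stated g/a dose, was applied to plants raised for 14 days from seed in sterilized diluvial soil at 25 to 30° C. Herbicidal effects were scored three weeks later.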

[8] = system: large crabgrass; test: as above; conditions: dose 3.2 g/a
Summary of the method: as §3

[9] = system: giant foxtail; test: as above; conditions: dose 3.2 g/a
Summary of the method: as §3

[10] = system: barnyardgrass; test: as above; conditions: dose 3.2 g/a
Summary of the method: as §3

[11] = system: common chickweed; test: as above; conditions: dose 3.2 g/a
Summary of the method: as §3

[12] = system: beadstraw; test: as above; conditions: dose 3.2 g/a
Summary of the method: as §3

[13] = system: posumbu knotweed; test: as above; conditions: dose 3.2 g/a
Summary of the method: as §3

[14] = system: redroot pigweed; test: as above; conditions: dose 3.2 g/a
Summary of the method: as §3

[15] = system: common ragweed; test: as above; conditions: dose 3.2 g/a
Summary of the method: as §3

[16] = system: Italian ryegrass; test: as above; conditions: dose 3.2 g/a
Summary of the method: as §3

[17] = system: velvetleaf; test: as above; conditions: dose 3.2 g/a
Summary of the method: as §3

[18] = system: water foxtail; test: as above; conditions: dose 3.2 g/a
Summary of the method: as §3

[19] = system: transplanted rice; test: Test Example 1: preemergence treatment under submerged conditions, effect on crop; conditions: dose 2.52 g/a
Summary of the method: as §2

[20] = system: common lambsquater; test: Test Example 3: herbicidal effects in soil treatment; conditions: dose 3.2 g/a
Summary of the method: (§4)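 Seeds were sown in sterilized diluvial soil and covered with about 1.5 cm of soil. Compounds, formulated as emulsifiable concentrates and diluted with water, were sprayed evenly over the soil surface at set doses in g/a. Herbicidal effect was scored on a rating scale three weeks later.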

[21] = system: large crabgrass; test: as above; conditions: dose 3.2 g/a
Summary of the method: as §4

[22] = system: giant foxtail; test: as above; conditions: dose 3.2 g/a
Summary of the method: as §4

[23] = system: barnyardgrass; test: as above; conditions: dose 3.2 g/a
Summary of the method: as §4

[24] = system: common chickweed; test: as above; conditions: dose 3.2 g/a
Summary of the method: as §4

[25] = system: posumbu knotweed; test: as above; conditions: dose 3.2 g/a
Summary of the method: as §4

[26] = system: redroot pigweed; test: as above; conditions: dose 3.2 g/a
Summary of the method: as §4

[27] = system: common ragweed; test: as above; conditions: dose 3.2 g/a
Summary of the method: as §4

[28] = system: Italian ryegrass; test: as above; conditions: dose 3.2 g/a
Summary of the method: as §4

[29] = system: velvetleaf; test: as above; conditions: dose 3.2 g/a
Summary of the method: as §4

[30] = system: water foxtail; test: as above; conditions: dose 3.2 g/a
Summary of the method: as §4

[31] = three weeks after the application

CCOC(=O)N(c1ccccc1CN1OCC(C)OC1=O)S(=O)(=O)C(F)(F)F (stereo not drawn) [III-4]
A: barnyardgrass, herbicidal effect (evaluation scale 0-5) [1]: 5 (mortality of 90% or above (nearly complete death))
C: ducksalad, herbicidal effect (evaluation scale 0-5) [2]: 5 (mortality of 90% or above (nearly complete death))
B: bulrush, herbicidal effect (evaluation scale 0-5) [3]: 5 (mortality of 90% or above (nearly complete death))
A: barnyardgrass, herbicidal effect (evaluation scale 0-5) [4]: 5 (mortality of 90% or above (nearly complete death))
C: ducksalad, herbicidal effect (evaluation scale 0-5) [5]: 5 (mortality of 90% or above (nearly complete death))
B: bulrush, herbicidal effect (evaluation scale 0-5) [6]: 5 (mortality of 90% or above (nearly complete death))
L: common lambsquater, herbicidal effect [7, 31]: 1 (mortality of at least 5% and less than 20%)
D: large crabgrass, herbicidal effect [8, 31]: 3 (mortality of at least 40% and less than 70%)
E: giant foxtail, herbicidal effect [9, 31]: 4 (mortality of at least 70% and less than 90%)
A: barnyardgrass, herbicidal effect [10, 31]: 5 (mortality of 90% or above (nearly complete death))
N: common chickweed, herbicidal effect [11, 31]: 5 (mortality of 90% or above (nearly complete death))
O: beadstraw, herbicidal effect [12, 31]: 3 (mortality of at least 40% and less than 70%)
M: posumbu knotweed, herbicidal effect [13, 31]: 3 (mortality of at least 40% and less than 70%)
K: redroot pigweed, herbicidal effect [14, 31]: 0 (mortality of less than 5% (almost ineffective))
J: common ragweed, herbicidal effect [15, 31]: 4 (mortality of at least 70% and less than 90%)
H: Italian ryegrass, herbicidal effect [16, 31]: 1 (mortality of at least 5% and less than 20%)
I: velvetleaf, herbicidal effect [17, 31]: 3 (mortality of at least 40% and less than 70%)
G: water foxtail, herbicidal effect [18, 31]: 5 (mortality of 90% or above (nearly complete death))
a: transplanted rice, effect on crop (evaluation scale 0-5) [19]: 0 (mortality of less than 5% (almost ineffective))
herbicidal effect, L: common lambsquater [20]: 5 (mortality of 90% or above (nearly complete death))
herbicidal effect, D: large crabgrass [21]: 5 (mortality of 90% or above (nearly complete death))
herbicidal effect, E: giant foxtail [22]: 5 (mortality of 90% or above (nearly complete death))
herbicidal effect, A: barnyardgrass [23]: 5 (mortality of 90% or above (nearly complete death))
herbicidal effect, N: common chickweed [24]: 4 (mortality of at least 70% and less than 90%)
herbicidal effect, M: posumbu knotweed [25]: 5 (mortality of 90% or above (nearly complete death))
herbicidal effect, K: redroot pigweed [26]: 3 (mortality of at least 40% and less than 70%)
herbicidal effect, J: common ragweed [27]: 3 (mortality of at least 40% and less than 70%)
herbicidal effect, H: Italian ryegrass [28]: 5 (mortality of 90% or above (nearly complete death))
herbicidal effect, I: velvetleaf [29]: 5 (mortality of 90% or above (nearly complete death))
herbicidal effect, G: water foxtail [30]: 5 (mortality of 90% or above (nearly complete death))

CCOC(=O)N(c1ccccc1CN1COC2(CCCCC2)CC1=O)S(=O)(=O)C(F)(F)F [II-68]
A: barnyardgrass, herbicidal effect (evaluation scale 0-5) [1]: 5 (mortality of 90% or above (nearly complete death))
C: ducksalad, herbicidal effect (evaluation scale 0-5) [2]: 5 (mortality of 90% or above (nearly complete death))
B: bulrush, herbicidal effect (evaluation scale 0-5) [3]: 5 (mortality of 90% or above (nearly complete death))
A: barnyardgrass, herbicidal effect (evaluation scale 0-5) [4]: 5 (mortality of 90% or above (nearly complete death))
C: ducksalad, herbicidal effect (evaluation scale 0-5) [5]: 5 (mortality of 90% or above (nearly complete death))
B: bulrush, herbicidal effect (evaluation scale 0-5) [6]: 5 (mortality of 90% or above (nearly complete death))
L: common lambsquater, herbicidal effect ([7]; three weeks after application): 4 (mortality of at least 70% and less than 90%)
D: large crabgrass, herbicidal effect ([8]; three weeks after application): 4 (mortality of at least 70% and less than 90%)
E: giant foxtail, herbicidal effect ([9]; three weeks after application): 5 (mortality of 90% or above (nearly complete death))
A: barnyardgrass, herbicidal effect ([10]; three weeks after application): 5 (mortality of 90% or above (nearly complete death))
N: common chickweed, herbicidal effect ([11]; three weeks after application): 4 (mortality of at least 70% and less than 90%)
O: beadstraw, herbicidal effect ([12]; three weeks after application): 3 (mortality of at least 40% and less than 70%)
M: posumbu knotweed, herbicidal effect ([13]; three weeks after application): 2 (mortality of at least 20% and less than 40%)
K: redroot pigweed, herbicidal effect ([14]; three weeks after application): 2 (mortality of at least 20% and less than 40%)
J: common ragweed, herbicidal effect ([15]; three weeks after application): 3 (mortality of at least 40% and less than 70%)
H: Italian ryegrass, herbicidal effect ([16]; three weeks after application): 1 (mortality of at least 5% and less than 20%)
I: velvetleaf, herbicidal effect ([17]; three weeks after application): 4 (mortality of at least 70% and less than 90%)
G: water foxtail, herbicidal effect ([18]; three weeks after application): 3 (mortality of at least 40% and less than 70%)
a: transplanted rice, effect on crop (evaluation scale 0-5) [19]: 3 (mortality of at least 40% and less than 70%)
L: common lambsquater, herbicidal effect (evaluation scale 0-5) [20]: 4 (mortality of at least 70% and less than 90%)
D: large crabgrass, herbicidal effect (evaluation scale 0-5) [21]: 5 (mortality of 90% or above (nearly complete death))
E: giant foxtail, herbicidal effect (evaluation scale 0-5) [22]: 5 (mortality of 90% or above (nearly complete death))
A: barnyardgrass, herbicidal effect (evaluation scale 0-5) [23]: 5 (mortality of 90% or above (nearly complete death))
N: common chickweed, herbicidal effect (evaluation scale 0-5) [24]: 4 (mortality of at least 70% and less than 90%)
M: posumbu knotweed, herbicidal effect (evaluation scale 0-5) [25]: 5 (mortality of 90% or above (nearly complete death))
K: redroot pigweed, herbicidal effect (evaluation scale 0-5) [26]: 3 (mortality of at least 40% and less than 70%)
J: common ragweed, herbicidal effect (evaluation scale 0-5) [27]: 2 (mortality of at least 20% and less than 40%)
H: Italian ryegrass, herbicidal effect (evaluation scale 0-5) [28]: 5 (mortality of 90% or above (nearly complete death))
I: velvetleaf, herbicidal effect (evaluation scale 0-5) [29]: 5 (mortality of 90% or above (nearly complete death))
G: water foxtail, herbicidal effect (evaluation scale 0-5) [30]: 5 (mortality of 90% or above (nearly complete death))
